Tests used:
[1] = tested on: HEK-293AI2 cells; format: cell-based, human; settings: human, 5 µM
Protocol: To monitor viable cells with active metabolism, we employed a fast resazurin assay. […] To calculate the relative cell viability, the fluorescence of DMSO-treated cells was set to 100%.
Figure 2. Cell-based primary screen for AI-2 biosynthesis inhibitors. (A) Detailed assay protocol of the primary screen using engineered mammalian cells to identify inhibitors of quorum sensing. […] Aliquots of 10 μl of culture supernatants were transferred to black-bottomed assay plates and mixed with 40 μl of V. harveyi MM32 (AI-2 biosensor). AI-2-induced bioluminescence was measured 4 h later and normalized against the controls. In a secondary screen, the dose-response relationships of hit compounds are analyzed. To simultaneously assess effects on cell viability, compound-treated cells were supplemented with PrestoBlue and incubated for 1 h prior to resorufin fluorescence quantification. (B) Z’-evaluation of the AI-2 inhibitor assay. […] Bioactivity and viability are calculated as percentages, based on the positive control value (taken as 100%) and negative control value (taken as 0%). […] Data points in (C) represent means of biological duplicates.

[2] = tested on: MRSA ATCC 43300; assay: Murine tissue cage (foreign-body) infection model, prophylaxis; format: in vivo, Staphylococcus aureus; settings: C57BL/6 mice, prophylactic treatment
Protocol: To evaluate the prophylactic efficacy of 5-FU against MRSA infection, we used our murine model of foreign-body infection, which closely mimics human implant-associated infections. This model of foreign-body infection ([26],[27]) was established with the approval of the Kantonale Veterinaeramt Basel-Stadt, Switzerland (permit no. 1710). Experiments were conducted according to the regulations of Swiss veterinary law and performed in the animal house of the Department of Biomedicine, University Hospital Basel, Switzerland. Healthy wild-type female C57BL/6 mice at 13 weeks of age (JanvierLabs, France) kept under specific pathogen-free conditions (biosafety level 2) were anesthetized, followed by the subcutaneous implantation of sterile cylindrical Teflon tissue cages (8.5 × 1 × 30 mm; volume: 1.9 ml) with 130 regularly spaced holes (Angst + Pfister AG, Zurich, Switzerland). They were housed in a 12 hr light/dark cycle (light from 7 am to 7 pm) in a temperature-controlled room (24°C) with free access to regular mice chow and water. Mice were randomly assigned to experimental groups, which were not involved in previous procedures. The mice were randomized into groups, which were treated as follows: saline (untreated growth control; n = 7), saline with 5.2844 mg/kg DPD (n = 4), 50 mg/kg daptomycin (DAP) (Novartis, Basel, Switzerland) (n = 11), 10 mg/kg 5-FU with and without 50 mg/kg DAP (each n = 8), 40 mg/kg 5-FU with or without 50 mg/kg DAP (n = 16 and n = 13, respectively), 40 mg/kg 5-FU with 1 μM DPD (n = 6), or 40 mg/kg 5-FU with 50 mg/kg DAP and 5.2844 mg/kg DPD (n = 8). DAP was given intraperitoneally immediately before implantation, and 5-FU and DPD was given immediately after implantation directly into the lumen of the cage. Afterwards, the cages were infected with 965 CFU of MRSA 43300. At 2 days post-infection, tissue cage fluid was collected, and the planktonic bacterial load was evaluated by plating on blood agar plates. In additional, mice were sacrificed and the tissue cages were explanted under aseptic conditions. The explanted tissue cages were washed twice with phosphate-buffered saline followed by 30 s vortexing, sonication for 3 min at 130 W and another 30 s vortexing to release adherent bacteria from the biofilm. Quantification of adherent bacteria was performed by plating appropriated dilutions on blood agar plates. To determine the prevention rate, the presence of any re-growth of MRSA was examined by further incubation of the cage in tryptic soy broth (TSB) for 48 h at 37°C. MRSA re-growth represents therapy failure, and the prevention rate was defined as the percentage of cages without growth in each treatment group.
Figure 6. Prophylactic effect of 5-FU against MRSA ATCC 43300 in a murine tissue cage infection model. Read-outs were obtained two days after infection with 965 CFU/cage and treatment with saline, saline with 1 μM AI-2, 50 mg/kg daptomycin (DAP), 10 mg/kg 5-FU with or without 50 mg/kg DAP, 40 mg/kg 5-FU with or without 50 mg/kg DAP or 40 mg/kg 5-FU with 50 mg/kg DAP and 5.2844 mg/kg DPD, as indicated below the panels. (A) Effect on planktonic MRSA 43300 two days post-infection. (B) Effect on adherent MRSA after explantation and sonication. (C) Prevention rate. Values in (A) and (B) are median ± IQR and those in (C) are % ([…]; **P < 0.001; ****P < 0.0001; ns, not significant). TEXT PRINTED IN THE PICTURE: (C) DAP: prevention rate (%): 18 | (C) DAP + 5-FU (10): prevention rate (%): 75 | (C) DAP + 5-FU (40): prevention rate (%): 94 | (C) DAP + 5-FU (40) + DPD: prevention rate (%): 12.5 DOUBTS OF THE COPYIST ABOUT THIS PICTURE: Panel C, DAP, prevention rate: 18 or 16 (small print) / Panel C, DAP + 5-FU (10), prevention rate: 75 or 76 (small print) / Panel C: which treatment belongs to each bar was read from the small +/- grid under the plot, so the column alignment is not fully certain

[3] = tested on: SE 1457 wild type; assay: AI-2 activity of SE 1457 wild type; format: cell-based, Staphylococcus epidermidis; settings: 3 h, increasing 5-FU concentrations
Protocol: To confirm that the phenotype could be restored, 1 μM synthetic (S)-4,5-dihydroxy-2,3-pentanedione (DPD) (Biosynth Carbosynth, Staad, Switzerland) was used. After 3 h under static conditions at 37°C, the supernatant was analysed for AI-2 activity with V. harveyi (MM32).
Supplementary Figure 4 | Bioactivity of 5-FU against Staphylococcus epidermidis (SE). a) Quorum-sensing-associated AI-2 activity of SE 1457 grown for 3 h in the presence of different 5-FU concentrations (note log scale). b) Reversing effect of 1 µM DPD on the AI-2-reducing action of 5-FU (dashed line indicates AI-2 baseline of SE 1457 without 5-FU). Values represent 3 biological replicates expressed as mean ± SD (*, p < 0.05; **, p < 0.01).

[4] = tested on: MRSA ATCC 43300; assay: MRSA 43300 growth; format: cell-based, Staphylococcus aureus; settings: 0.1 μM 5-FU
Protocol: Figure 4. Bioactivity of 5-FU against MRSA ATCC 43300. (A) Quorum sensing-associated AI-2 activity of MRSA 43300 grown for 3 h with different 5-FU concentrations. (B) Effect of different 5-FU concentrations on MRSA 43300 growth. (C) Interference with biofilm formation. (D) Effect on adherent MRSA 43300. Data points represent three biological replicates expressed as mean ± SD (**P < 0.01; ***P < 0.001; ****P < 0.0001).

How did the “Viability of Ctrl (%)” value [1] turn out when `O=c1[nH]cc(F)c(=O)[nH]1` [5-Fluorouracil] was run?
The value was 1.53%.

And the “Effect on biofilm / adherent MRSA” value ([2]; explanted cages 2 days post-infection)?
The value was “neither 5-FU nor DAP alone was sufficient to contain the infection”.

And the “Effect on planktonic MRSA infection” value ([2]; tissue cage fluid 2 days post-infection)?
Its value is “failed to clear planktonic MRSA infections”.

What about the “AI-2 activity of SE 1457” value [3] of the same compound?
The value was “reduced AI-2 activity dose-dependently”.

And the “Bacterial growth of MRSA” value [4]?
The value was “significantly decreased bacterial growth”.

— article PMC8287944, “5-Fluorouracil blocks quorum-sensing of biofilm-embedded methicillin-resistant Staphylococcus aureus in mice” (Nucleic Acids Research, 2021)
